The text below walks through data of EP1212309B1, “CASPASE INHIBITOR” (LG Chem Investment, Ltd., priority 1999, dated 2001).

The structures appear in SMILES notation.

One assay concerns the target T1, caspase-1 (Homo sapiens, UniProt P29466).
T1 construct: made in house
T1 sequence (P29466 120-297 limits assumed): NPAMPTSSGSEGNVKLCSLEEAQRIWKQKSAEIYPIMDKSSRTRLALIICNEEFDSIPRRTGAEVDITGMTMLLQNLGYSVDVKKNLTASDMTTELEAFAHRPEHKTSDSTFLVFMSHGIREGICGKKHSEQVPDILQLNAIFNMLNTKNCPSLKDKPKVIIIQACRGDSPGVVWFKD
T1 sequence (P29466 317-404 limits assumed): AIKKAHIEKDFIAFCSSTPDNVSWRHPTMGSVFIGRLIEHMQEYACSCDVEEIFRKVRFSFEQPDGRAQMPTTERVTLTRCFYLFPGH
In words: Screening on caspases inhibiting activity (recombinant enzyme, fluorogenic AMC substrate). The class given is biochemical. Particulars: Irreversible Inhibitors; read-out: Kobs/[I] for caspase-1. As to the method:
(§1) In the present experiment, recombinant caspases were purified from a transformed bacterium after human caspase genes were cloned into the expression vector pET, and then used in the experiment (Thornberry, N.A. et .al. Nature, 1992, 356, 768. Thombeny, N.A. Methods in Enzymology, 1994, 615.).
(§2) Enzymatic activity was measured by a known procedure (Walker N.P.C. et al., Cell 1994, 78, 343). Briefly, 10 ng of recombinant protein was mixed with 50 mM Tris(pH 7.0), 1mM DTT, 0.5 mM EDTA, 10% Glycerol buffer containing 1∼100 µM of enzyme substrate, Ac-YVAD-AMC or Ac-DEVD-AMC and then the changes by isolated AMC at 37°C were recorded. The inhibitory activity for caspases was calculated from the early enzyme reaction rate by measuring the changes with fluorescence excited at […] and emitted at 460 nm (Range; Ki<100nM).

For a further assay, the target named is T2, caspase-3 (Homo sapiens, UniProt P42574).
T2 construct: made in house
T2 sequence (P42574 29-175 limits assumed): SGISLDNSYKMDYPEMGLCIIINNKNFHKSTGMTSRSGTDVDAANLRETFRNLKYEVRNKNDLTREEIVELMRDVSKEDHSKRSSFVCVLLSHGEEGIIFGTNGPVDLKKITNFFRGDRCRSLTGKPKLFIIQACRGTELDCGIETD
T2 sequence (P42574 176-277 limits assumed): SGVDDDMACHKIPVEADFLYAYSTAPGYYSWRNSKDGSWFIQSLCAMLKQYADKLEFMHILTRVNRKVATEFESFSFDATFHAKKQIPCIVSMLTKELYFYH
Described as above. In kind it is biochemical. Particulars: Irreversible Inhibitors; read-out: Kobs/[I] for caspase-3. As to the method:
as §1, §2

Another assay has as its system Jurkat T cell. In words: MTT assay of cell death induced by Anti-FAS antibody CH11. The class given is cell-based. As to conditions: Homo sapiens; Jurkat T cell treated with Anti-FAS antibody CH11, MTT; read-out: ED50 FAS Induced cell death. For orientation: Formazan colour is commonly taken as a measure of viable cells.
The test system of assay [1] is anti-Fas antibody-induced liver apoptosis. In words: Anti-Fas antibody (Jo2)-induced liver apoptosis and lethality in mice. The class given is in vivo, C57BL/6 female mice. As for the experimental part:
[…] C57BL/6 female mice(18-20 g) were injected i.p. with compound 33MP dissolved in vehicle which consists of olive oil and 10% DMSO, or vehicle alone, at 1 hr before i.v. injection with 10 µg of Anti-Fas antibody (Jo2). Following 4 hrs of i.v. injection with Jo2 antibody, animals were placed under inhaled isoflurane anesthesia for blood collection and liver isolation. Mice were also i.p. injected with 0.2 µg/20 g of TNFα and 12 mg/20 g of D-galactosamine(TNFα /GalN) and compound 33MP or its salt form (Compound 33MP-Na). 8 hrs later, blood and liver tissues were isolated from anesthetized animals. The liver tissues were snap-frozen and stored at -80° C until use. Plasma was isolated from blood by centrifugation at 12,000 x g for 10 min at 4° C and stored at -80° C. In some experiments for animal mortality, mice were i.p. injected with TNFα /GalN and caspase inhibitor was injected 1 hr before, simultaneously, 2 hrs, or 4 hrs after TNFα /GalN injection.
Whole tissues (0.5 g) were homogenated in ice-cold lysis buffer (5 mM Tris, 20 mM EDTA, 0.5% Triton-X 100, pH8.0). The lysate was centrifuged at 12,000 x g for 20 min at 4° C. The supernatant was obtained and extracted twice with a mixture of phenol and chloroform. One-tenth volume of 3 M sodium acetate was added to the solution, and DNA was precipitated by adding an equal volume of isopropanol. After storing at -20° C overnight, a DNA pellet was obtained by centrifugation at 12,000 x g for 15 min. at 4 ° C and washed twice with 75% ethanol. The pellet was dried and resuspended in 100 µl of 20 mM Tris-HCl, pH 8.0. After digesting RNA with DNase-free RNase (0.1 mg/ml) at 37 ° C for 1 hr, samples […] were electrophoresed through a 1.2% agarose gel in […] Tris borate + EDTA (TBE), pH 8.0 buffer. DNA was photographed under visualized with UV light.
Liver tissues were homogenated in 10 mM HEPES buffer containing protease inhibitors (5 µg/ml aprotinin, 5 µg/ml pepstatin A, 10 µg/ml leupeptin, and 0.5 mM PMSF) and lysed by three freeze/thaw cycles. The cytosolic fraction was obtained by centrifugation at 12,000 x g for 20 min. at 4" C. Protein concentration was determined with BCA protein assay reagent (pierce, Rockford, IL). Cytosol containing 200 µg protein was combined in 96-well plate with […] of synthetic substrate Ac-DEVD-pNA in 150 µl of 100 mM HEPES, pH 7.4, containing the protease inhibitors, and the reaction was conducted for 1 hr at 37° C. […] Plasma level of aspartate aminotransferase (AST) was analyzed by spectrophotometry using each enzyme assay kit (Sigma).

Assay [2] deals with TNFα -mediated liver toxicity. In words: TNFα-mediated liver toxicity and mortality in mice. In kind it is in vivo, C57BL/6 female mice.
Where [3] appears, read: mice treated with TNFα /ActD (so in the source).

For the molecule `CC(C)[C@H](NC(=O)c1cccc2ccccc12)C1=NOC(Cc2ccccc2)(C(=O)N[C@@H](CC(=O)O)C(=O)COC(=O)c2c(Cl)cccc2Cl)C1` (stereo partly drawn) [Compound 33mp, (3S)-3-{3-[2-methyl-(1S)-1-(1-naphthalenecarbonylamino)-propyl]-5-phenylmethyl-4,5-dihydro-isoxazole-5-carbonylamino}-4-keto-5-(2,6-dichlorobenzoyloxy)-pentanoic acid], the kinact/KI at caspase-1 stood at 807000 M⁻¹ s⁻¹. For the same molecule, the kinact/KI at caspase-3 worked out at 500 M⁻¹ s⁻¹. For the same molecule, the EC50 in the assay on Jurkat T cell lay in the range of 1 to 10 µM. Also, the “liver apoptosis as determined by DNA fragmentation” value in assay [1] (0.4 mg/20 g, 1 mg/20 g i.p. 1 hr before anti-Fas antibody, 4 hrs after antibody) is on record as “suppressed the liver apoptosis in a dose-dependent manner”. For the same molecule, in assay [1] (anti-Fas antibody-treated mice), the “release of liver enzyme AST” value is listed as “significantly suppressed”. Also, the reduction of mortality entry in assay [1] (anti-Fas antibody-treated mice (85% died within 24 hrs without treatment)) is recorded as “about 30%”. The “caspase-3-like activity in liver tissues” value in assay [1] (anti-Fas antibody-treated mice, Ac-DEVD-pNA) is given as “abrogated”. Besides, the animals survived in assay [2] (TNFα /ActD-mediated mouse mortality, within 24 hrs) is 80%. In addition, in assay [2] (setting [3]), the “DNA fragmentation in liver tissues” value is on record as “significantly reduced”, the “caspase-3-like activity in liver” value is recorded as “suppressed” and the “release of AST” value was “suppressed”.
On to `CC(C)[C@H](NC(=O)c1cccc2ccccc12)C1=NOC(Cc2ccccc2)(C(=O)N[C@@H](CC(=O)O)C(=O)COC(=O)c2c(F)cccc2F)C1` (stereo partly drawn) [Compound 58, (3S)-3-{3-[2-methyl-(1S)-1-(naphthalene-1-carbonylamino)-propyl]-5-phenylmethyl-4,5-dihydro-isoxazole-5-carbonylamino}-4-keto-5-(2,6-difluorobenzoyloxy)-pentanoic acid], for which the kinact/KI at caspase-1 came to 577000 M⁻¹ s⁻¹; on caspase-3, 371 M⁻¹ s⁻¹. Also, the EC50 in the assay with Jurkat T cell fell in the range of 1 to 10 µM.
